Values of other authors as cited in article PMC3530638 (Biochimica et biophysica acta, 2012).

Tested on: B. anthracis
Conditions: cited from earlier work

CCCC1c2ccccc2C=NN1C(=O)/C=C/c1cc(Cc2cnc(N)nc2N)cc(OC)c1OC (stereo not shown) [n-propyl, (E)-3-[5-(2,4-diaminopyrimidin-5-ylmethyl)-2,3-dimethoxyphenyl]-1-(1-propyl-1h-phthalazin-2-yl)propenone]
MIC: 1 to 3 µg/mL
